Data taken from patent publication US20170049777A1, “COMPOSITIONS, METHODS AND USES FOR THE TREATMENT OF DIABETIC NEUROPATHIES” (Pharnext, priority 2014, published 2017).
Read-outs that look alike come from different tables or passages of the source.

What was measured:
rat cortical neurons = assay: Neurite network length of rat cortical primary neurons under high glucose; assay type: cell-based; conditions: 45 mmol/L glucose, 24 hours, MAP-2 staining
Experimental: Rat cortical neurons are cultured as described by Singer et al.. Briefly, pregnant female rats of 15 days gestation are killed by cervical dislocation (rats Wistar) and the foetuses are removed from the uterus. The cortex is then removed and placed in ice-cold medium of Leibovitz (L15) containing 2% of Penicillin 10.000 U/mL and Streptomycin 10 mg/mL and 1% of bovine serum albumin (BSA). Cortices are dissociated by trypsin for 20 min at 37° C. (0.05%). The reaction is stopped by the addition of Dulbecco's modified Eagle's medium (DMEM) containing DNasel grade II and 10% of foetal calf serum (FCS). Cells are then mechanically dissociated by 3 serial passages through a 10 mL pipette and centrifuged at 515×g for 10 min at +4° C. The supernatant is discarded and the pellet of cells is re-suspended in a defined culture medium consisting of Neurobasal supplemented with B27 (2%), L-glutamine (0.2 mM), 2% of PS solution and 10 ng/mL of BDNF. Viable cells are counted in a Neubauer cytometer using the trypan blue exclusion test. The cells are seeded at a density of 30 000 cells/well in 96 well-plates (wells were pre-coated with poly-L-lysine (10 μg/mL)) and were cultured at +37° C. in a humidified air (95%)/CO2 (5%) atmosphere.
After 10 days of culture, cells are incubated with drugs and their combinations. After 1 hour, medium glucose concentration is raised to 45 mmol/L glucose in defined medium without BDNF but together with tested compound. Cortical neurons are so cultured for 24 hours. BDNF (10 ng/mL) is used as a positive (neuroprotective) control. Three independent cultures were performed per condition, 6 wells per condition.
After 24 hours of culture in high glucose conditions, the supernatant is taken off and the cortical neurons are fixed by a cold solution of ethanol (95%) and acetic acid (5%) for 5 min. After permeabilization with 0.1% of saponin, cells are blocked for 2 hours with PBS containing 1% foetal calf serum. Then, cells are incubated with monoclonal antibody anti microtubule-associated-protein 2 (MAP-2; Sigma). This antibody stains specifically cell bodies and neurites of neurons. […] Nuclei of neurons are labelled by a fluorescent marker (Hoechst solution, Sigma).
Per well, 10 pictures are taken using InCell Analyzer™ 1000 (GE Healthcare) with 20× magnification. All pictures are taken in the same conditions. Analysis of the neurite network is done using Developer software (GE Healthcare) in order to assess the total length of neurite network.

[1] = tested on: DRG explants from STZ rats; assay: Neurite outgrowth from dorsal root ganglia explants from STZ rats; assay type: cell-based, rat
[2] = tested on: sensory neurons and Schwann cells co-culture; assay: Myelination in co-culture of sensory neurons and Schwann cells under high glucose (MBP expression); assay type: cell-based, rat; parameters: key: +: significant improvement in length of myelinated axons when compared to non-treated conditions as assessed by MBP expression; conditions: 45 mmol/L glucose, 50 μg/mL ascorbic acid, MBP staining, 5, 9, 10, 11 and 13 days
Experimental: A model of co-culture was used as an in vitro model of diabetes. This model of myelination consists in co-culturing sensory neurons and Schwann cells from Wistar rats dissociated dorsal root ganglia (DRG).
The aim of this study is to assess the effect of tested compounds and compound combinations on myelination process under high glucose conditions mimicking diabetes. The effect of the tested compounds on myelination, either in high glucose concentration or not, is assessed by evaluating Myelin Basic Protein (MBP) expression in presence of ascorbic acid.
Fifteen days gestation pregnant female rats are killed by cervical dislocation. The embryos are removed from the uterus and are at similar foetal stage of development.
Rat DRG are cultured as previously described by Cosgaya et al. and Rangaraju et al..
Each embryo is dispatched on numerating petri dish (35 mm of diameter). DRG of each embryo is collected, placed in ice-cold medium of Leibovitz (L15, Invitrogen). At the end of the dissection, DRG of TGM are pooled and dissociated by trypsinization (trypsin EDTA, 0.05%; Invitrogen) for 20 min at 37° C. The reaction is stopped by addition of DMEM containing 10% of foetal bovine serum (FBS) in the presence of DNAase I (Roche). The suspension is triturated with a 10 mL pipette. Cells are then centrifuged at 350×g for 10 min at room temperature. The pellet of dissociated cells is resuspended in neurobasal medium (Invitrogen) containing 2% of B27 (Invitrogen), 1% of penicillin-streptomycin (Invitrogen), 1% de L glutamine and 50 ng/mL NGF (Sigma). This medium is the neuronal medium. Viable cells are counted in a Neubauer cytometer using the trypan blue exclusion test (Sigma) and seeded on the basis of 10 000 cells per well in 96 well-plates (Greiner) treated with poly-L-lysine. The plates are maintained at 37° C. in a humidified incubator, in an atmosphere of air (95%)-CO2 (5%). Half of the standard neuronal culture medium is changed every other day. The cultures are maintained in standard neurobasal medium for 7 days to allow Schwann cells to populate the sensory neuron neurites. On day 7, the cultures are fed with standard neuronal medium supplemented or not with 50 μg/mL ascorbic acid in order to initiate basal lamina formation and myelination.
On Day 7, the Following Tested Compounds (Alone or in Combination) Listed in Table 5 are added in the medium with 50 μg/mL ascorbic acid. Basal glucose in culture medium is 25 mmol/L, which is necessary for DRG neuron survival. To produce a hyperglycemic insult, 20 mmol/L additional glucose (total 45 mmol/L glucose) is added to the media for the period specified.
The tested compounds are incubated for 5 different times: 5, 9, 10, 11 and 13 days.
Three separate and independent cultures of DRG are done. These conditions are assessed in presence of ascorbic acid, 6 wells per condition. The solution ready to use of all tested compounds are extemporaneously prepared from a stock solution, stored at −20° C. This solution is prepared once a week. Half of the standard neuronal medium supplemented with tested compounds, ascorbic acid (each at the concentration 1×) and glucose are changed every other day.
After 5, 9, 10, 11 and 13 days of incubation, cells are fixed by a cold solution of ethanol (95%) and acetic acid (5%) for 10 min. The cells are permeabilized and blocked with PBS containing 0.1% saponin and 10% goat serum for 15 min. Then, the cells are incubated with a specific marker of myelin: polyclonal antibody anti-myelin basic protein (MBP) antibody (Sigma 118K0431).
Nuclei of neurons are labelled by a fluorescent marker (Hoechst solution, SIGMA ref B1155).
Per well, 20 pictures are taken using InCell Analyzer™ 1000 (GE Healthcare) with 20× magnification. All images are taken in the same conditions. Analysis of total length of myelinated axons was automatically done (length and area around axons) using
Developer software (GE Healthcare). All values will be expressed as mean+/−s.e.mean. […]

[3] = spinal cord explants from diabetic rats cultured 24-48-72 hours with compound

Structure (SMILES) | Protection of neurite network, rat cortical primary cell culture (rat cortical neurons) | Protection of neurite network, DRG explants from STZ rats [1] | protecting DRG from apoptosis and/or improving neurite outgrowth [1] | Myelinated axon length [2] | Protection of neurite network, DRG explants from STZ rats [1, 3]
NCC(CC(=O)O)c1ccc(Cl)cc1 (stereo not drawn) [baclofen] | + | + | particularly efficient | + | –
Cc1cccc(C)c1OCC(C)N (stereo not drawn) [mexiletine] | + | – | particularly efficient | + | +
CC(C(O)c1ccc(O)cc1)N1CCC(Cc2ccccc2)CC1 (stereo not drawn) [ifenprodil] | + | – | particularly efficient | + | +
C1COC(NC(C2CC2)C2CC2)=N1 [rilmenidine] | + | – | particularly efficient | + | +
CCN(CC)C(=O)N1CCN(C)CC1 [diethylcarbamazine] | + | – | particularly efficient | + | +
C[C@@H]1CC(=O)NN=C1c1ccc(NN=C(C#N)C#N)cc1 [levosimendan] | + | – | particularly efficient | + | +
CN/C(=N/CCSCc1nc[nH]c1C)NC#N [cimetidine] | + | – | particularly efficient | + | +
CO[C@]12C[C@@H](COC(=O)c3cncc(Br)c3)CN(C)[C@@H]1Cc1cn(C)c3cccc2c13 [nicergoline] | + | – | particularly efficient | + | +
CC(=O)NCCCS(=O)(=O)O [acamprosate] | + | – | particularly efficient | + | +
C[C@@H](NCCCc1cccc(C(F)(F)F)c1)c1cccc2ccccc12 [cinacalcet] | + | – | particularly efficient | + | +
CN(C)CC[C@@H](c1ccc(Br)cc1)c1ccccn1 [dexbrompheniramine] | + | – | particularly efficient | + | +
CCN(CC)CCOCCOC(=O)C1(c2ccccc2)CCCC1 [carbetapentane] | + | – | particularly efficient | + | +
Cc1cccc(Nc2ccncc2S(=O)(=O)NC(=O)NC(C)C)c1 [torasemide] | + | – | particularly efficient | + | +
Cc1ccc(C(=O)C(C)CN2CCCCC2)cc1 (stereo not drawn) [tolperisone] | + | – | particularly efficient | + | +
Nc1nc(N)c2nc(-c3ccccc3)c(N)nc2n1 [triamterene] | + | – | particularly efficient | + | +
